We go through 5 sequences from patent US20070128217A1 (priority 2003, published 2007).

Assay [1] relates to antibodies in sera from SARS patients (sera 1a, 1b, 2, 6, 37, 62, London, SARS-yellow, SARS-green). The class given is binding, human. Further details: Binding of serum 6 to linear peptides of protein X1 of SARS-CoV Urbani / Binding of serum 37 to linear peptides of protein X1 of SARS-CoV Urbani / Binding of serum 6 to looped/cyclic peptide (PEPSCAN-ELISA) / Binding of serum 37 to looped/cyclic peptide (PEPSCAN-ELISA) / Binding of serum 37 to looped/cyclic peptides of protein X1 of SARS-CoV Urbani / Binding of serum 6 to linear peptides of protein X2 / Binding of serum 37 to linear peptides of protein X2 / Binding of serum 37 to looped/cyclic peptides of protein X2 of SARS-CoV Urbani / Binding of serum 6 to linear peptides of protein M of SARS-CoV Urbani / Binding of serum 37 to linear peptides of protein M of SARS-CoV Urbani / Binding of serum 6 to looped/cyclic peptides of protein M of SARS-CoV Urbani / Binding of serum 37 to looped/cyclic peptides of protein M of SARS-CoV Urbani / Binding of serum 6 to linear peptides of protein X3 of SARS-CoV Urbani / Binding of serum 37 to linear peptides of protein X3 of SARS-CoV Urbani / Binding of serum 37 to looped/cyclic peptides of protein X3 of SARS-CoV Urbani / Binding of serum 6 to linear peptides of protein X4 of SARS-CoV Urbani / Binding of serum 37 to linear peptides of protein X4 of SARS-CoV Urbani / Binding of serum 37 to looped/cyclic peptides of protein X4 of SARS-CoV Urbani / Binding of serum 6 to linear peptides of protein X5 of SARS-CoV Urbani / Binding of serum 37 to linear peptides of protein X5 of SARS-CoV Urbani / Binding of serum 37 to looped/cyclic peptides of protein X5 of SARS-CoV Urbani / Binding of serum 6 to linear peptides of protein N of SARS-CoV Urbani / Binding of serum 37 to linear peptides of protein N of SARS-CoV Urbani / Binding of serum 6 to linear peptide (PEPSCAN-ELISA) / Binding of serum 1a to looped/cyclic peptides of protein N of SARS-CoV Urbani / Binding of serum 1b to looped/cyclic peptides of protein N of SARS-CoV Urbani / Binding of serum 2 to looped/cyclic peptides of protein N of SARS-CoV Urbani / Binding of serum 6 to looped/cyclic peptides of protein N of SARS-CoV Urbani / Binding of serum 37 to looped/cyclic peptides of protein N of SARS-CoV Urbani / Binding of serum 62 to looped/cyclic peptides of protein N of SARS-CoV Urbani / Binding of serum London to looped/cyclic peptides of protein N of SARS-CoV Urbani / Binding of serum SARS-green to looped/cyclic peptides of protein N of SARS-CoV Urbani: unit not given here.

The subject of assay [2] is control sera (pooled serum of ten healthy LUMC hospital workers; commercial negative donor pooled serum from the Dutch bloodbank). Format: binding, human. Details: Binding of Control serum LUMC to linear peptides / Binding of Control serum Blood-bank to linear peptides / Binding of Control serum LUMC to looped peptides / Binding of Control Serum Blood-Bank to Looped peptides / Binding of Control serum LUMC to linear peptides of the protein M of SARS-CoV Urbani / Binding of Control serum Blood-bank to linear peptides of the protein M of SARS-CoV Urbani / Binding of Control serum LUMC to looped peptides of the protein M of SARS-CoV Urbani / Binding of Control Serum Blood-Bank to Looped peptides of the protein M of SARS-CoV Urbani: unit not given here.

Assay [3] concerns rabbit serum obtained by immunizing a rabbit with the SARS-CoV strain Frankfurt 1. Format: binding. Details: Binding of a rabbit serum to linear peptides / Binding of a rabbit serum to looped peptides / Rabbit serum linear peptides / Rabbit serum looped peptides / Binding of a rabbit serum to linear peptides of protein N of SARS-CoV Urbani (Rabbit serum linear peptides) / Binding of a rabbit serum to looped/cyclic peptides of protein N of SARS-CoV Urbani (Rabbit serum looped peptides): unit not given here.

For the sequence CIPYNSVTDTIVVTE, in assay [1], the “Binding of serum 1a to linear peptides of protein X1 of SARS-CoV Urbani” value was 0.7, the “Binding of serum 1b to linear peptides of protein X1 of SARS-CoV Urbani” value is 0.6, the “Binding of serum 1b to looped/cyclic peptides of protein X1 of SARS-CoV Urbani” value came out at 0.4 and the “Binding of serum 2 to linear peptides of protein X1 of SARS-CoV Urbani” value came to 0.5. In addition, in assay [1], the “Binding of serum 2 to looped/cyclic peptides of protein X1 of SARS-CoV Urbani” value was found to be 0.5, the “Binding of serum 6 to linear peptides of protein X1 of SARS-CoV Urbani” value stood at 0.5, the “Binding of serum 6 to looped/cyclic peptides of protein X1 of SARS-CoV Urbani” value amounted to 0.2 and the “Binding of serum 37 to linear peptides of protein X1 of SARS-CoV Urbani” value is reported as 0.7. Further, in assay [1], the “Binding of serum 37 to looped/cyclic peptides of protein X1 of SARS-CoV Urbani” value is given as 0.6, the “Binding of serum 62 to linear peptides of protein X1 of SARS-CoV Urbani” value was determined as 0.6, the “Binding of serum 62 to looped/cyclic peptides of protein X1 of SARS-CoV Urbani” value is recorded as 0.5 and the “Binding of serum London to linear peptides of protein X1 of SARS-CoV Urbani” value is given as 0.3. In addition, in assay [1], the “Binding of serum London to looped/cyclic peptides of protein X1 of SARS-CoV Urbani” value is 0.2, the “Binding of serum SARS-green to linear peptides of protein X1 of SARS-CoV Urbani” value turned out to be 0.3, the “Binding of serum SARS-green to looped/cyclic peptides of protein X1 of SARS-CoV Urbani” value was 0.3 and the “Binding of serum SARS-yellow to linear peptides of protein X1 of SARS-CoV Urbani” value worked out at 0.5. In addition, the “Binding of serum SARS-yellow to looped/cyclic peptides of protein X1 of SARS-CoV Urbani” value in assay [1] amounted to 0.4. Also, in assay [2], the “Binding of Control Serum Blood-Bank to Looped peptides” value amounted to 0.6, the “Binding of Control serum Blood-bank to linear peptides” value is recorded as 0.5, the “Binding of Control serum LUMC to linear peptides” value is reported as 0.6 and the “Binding of Control serum LUMC to looped peptides” value was 0.5. Moreover, in assay [3], the “Binding of a rabbit serum to linear peptides” value stood at 0.1 and the “Binding of a rabbit serum to looped peptides” value amounted to 0.4.

Consider CKHKKVSTNLCTHSF, for which, in assay [1], the “Binding of serum 1a to looped/cyclic peptides of protein X2 of SARS-CoV Urbani” value turned out to be 0.7, the “Binding of serum 1b to looped/cyclic peptides of protein X2 of SARS-CoV Urbani” value came out at 0.7, the “Binding of serum 2 to looped/cyclic peptides of protein X2 of SARS-CoV Urbani” value is recorded as 0.4 and the “Binding of serum 6 to looped/cyclic peptides of protein X2 of SARS-CoV Urbani” value amounted to 0.3. Further, in assay [1], the “Binding of serum 37 to looped/cyclic peptides of protein X2 of SARS-CoV Urbani” value was 0.6, the “Binding of serum 62 to looped/cyclic peptides of protein X2 of SARS-CoV Urbani” value is listed as 0.5, the “Binding of serum London to looped/cyclic peptides of protein X2 of SARS-CoV Urbani” value was found to be 0.3 and the “Binding of serum SARS-green to looped/cyclic peptides of protein X2 of SARS-CoV Urbani” value is 0.4. In addition, in assay [1], the “Binding of serum SARS-yellow to looped/cyclic peptides of protein X2 of SARS-CoV Urbani” value is listed as 0.9; the “Recognition of the peptide by sera of SARS-CoV infected individuals, and form (linear, looped/cyclic) in which it is recognized” value was “recognized in linear form”. For the same sequence, in assay [2], the “Binding of Control Serum Blood-Bank to Looped peptides” value was determined as 0.1, the “Binding of Control serum Blood-bank to linear peptides” value was determined as 0.8, the “Binding of Control serum LUMC to linear peptides” value is reported as 1.0 and the “Binding of Control serum LUMC to looped peptides” value is 0.4. Moreover, in assay [3], the “Binding of a rabbit serum to linear peptides” value was found to be 0.3 and the “Binding of a rabbit serum to looped peptides” value is recorded as 0.5.

Regarding CRIIMRCWLCWKCKS, in assay [1], the “Binding of serum 1a to looped/cyclic peptide (PEPSCAN-ELISA)” value was 0.5, the “Binding of serum 1b to looped/cyclic peptide (PEPSCAN-ELISA)” value was found to be 0.4, the “Binding of serum 2 to looped/cyclic peptide (PEPSCAN-ELISA)” value stood at 0.5 and the “Binding of serum 6 to looped/cyclic peptide (PEPSCAN-ELISA)” value is given as 0.5. Further, in assay [1], the “Binding of serum 37 to looped/cyclic peptide (PEPSCAN-ELISA)” value stood at 0.6, the “Binding of serum 62 to looped/cyclic peptide (PEPSCAN-ELISA)” value amounted to 0.6, the “Binding of serum London to looped/cyclic peptide (PEPSCAN-ELISA)” value is 0.4 and the “Binding of serum SARS-green to looped/cyclic peptide (PEPSCAN-ELISA)” value was 0.2. Besides, in assay [1], the “Binding of serum SARS-yellow to looped/cyclic peptide (PEPSCAN-ELISA)” value worked out at 0.4; the “Recognition of the peptide by sera of SARS-CoV infected individuals, and form (linear, looped/cyclic) in which it is recognized” value is listed as “recognized in linear form”. Moreover, in assay [2], the “Binding of Control Serum Blood-Bank to Looped peptides” value is reported as 0.7, the “Binding of Control serum Blood-bank to linear peptides” value is listed as 0.4, the “Binding of Control serum LUMC to linear peptides” value is on record as 0.3 and the “Binding of Control serum LUMC to looped peptides” value was found to be 0.7. In assay [3], the “Binding of a rabbit serum to linear peptides” value is reported as 0.1 and the “Binding of a rabbit serum to looped peptides” value came to 0.7.

Consider CWKCKSKNPLLYDAN, for which, in assay [1], the “Binding of serum 1a to looped/cyclic peptide (PEPSCAN-ELISA)” value amounted to 0.7, the “Binding of serum 1b to looped/cyclic peptide (PEPSCAN-ELISA)” value was found to be 0.6, the “Binding of serum 2 to looped/cyclic peptide (PEPSCAN-ELISA)” value was 0.5 and the “Binding of serum 6 to looped/cyclic peptide (PEPSCAN-ELISA)” value is listed as 0.4. Further, in assay [1], the “Binding of serum 37 to looped/cyclic peptide (PEPSCAN-ELISA)” value is 0.7, the “Binding of serum 62 to looped/cyclic peptide (PEPSCAN-ELISA)” value was determined as 0.6, the “Binding of serum London to looped/cyclic peptide (PEPSCAN-ELISA)” value came to 0.3 and the “Binding of serum SARS-green to looped/cyclic peptide (PEPSCAN-ELISA)” value worked out at 0.2. Further, in assay [1], the “Binding of serum SARS-yellow to looped/cyclic peptide (PEPSCAN-ELISA)” value stood at 0.6; the “Recognition of the peptide by sera of SARS-CoV infected individuals, and form (linear, looped/cyclic) in which it is recognized” value was “recognized in linear form”. Further, in assay [2], the “Binding of Control Serum Blood-Bank to Looped peptides” value amounted to 0.7, the “Binding of Control serum Blood-bank to linear peptides” value worked out at 0.7, the “Binding of Control serum LUMC to linear peptides” value was found to be 0.8 and the “Binding of Control serum LUMC to looped peptides” value was found to be 0.7. Besides, in assay [3], the “Binding of a rabbit serum to linear peptides” value is on record as 0.1 and the “Binding of a rabbit serum to looped peptides” value is recorded as 0.5.

Consider DFQVTIAEILIIIMR, for which, in assay [1], the “Binding of serum 1a to linear peptides of protein X3 of SARS-CoV Urbani” value was 0.7, the “Binding of serum 1a to looped/cyclic peptides of protein X3 of SARS-CoV Urbani” value is recorded as 0.7, the “Binding of serum 1b to linear peptides of protein X3 of SARS-CoV Urbani” value is on record as 0.5 and the “Binding of serum 1b to looped/cyclic peptides of protein X3 of SARS-CoV Urbani” value was 0.4. For the same sequence, in assay [1], the “Binding of serum 2 to linear peptides of protein X3 of SARS-CoV Urbani” value is on record as 0.6, the “Binding of serum 2 to looped/cyclic peptides of protein X3 of SARS-CoV Urbani” value amounted to 0.7, the “Binding of serum 6 to linear peptides of protein X3 of SARS-CoV Urbani” value came to 0.5 and the “Binding of serum 6 to looped/cyclic peptides of protein X3 of SARS-CoV Urbani” value was 0.4. In addition, in assay [1], the “Binding of serum 37 to linear peptides of protein X3 of SARS-CoV Urbani” value came to 0.6, the “Binding of serum 37 to looped/cyclic peptides of protein X3 of SARS-CoV Urbani” value turned out to be 0.7, the “Binding of serum 62 to linear peptides of protein X3 of SARS-CoV Urbani” value was found to be 0.6 and the “Binding of serum 62 to looped/cyclic peptides of protein X3 of SARS-CoV Urbani” value is listed as 0.5. In addition, in assay [1], the “Binding of serum London to linear peptides of protein X3 of SARS-CoV Urbani” value stood at 0.6, the “Binding of serum London to looped/cyclic peptides of protein X3 of SARS-CoV Urbani” value came to 0.2, the “Binding of serum SARS-green to linear peptides of protein X3 of SARS-CoV Urbani” value turned out to be 0.4 and the “Binding of serum SARS-green to looped/cyclic peptides of protein X3 of SARS-CoV Urbani” value is 0.2. Also, in assay [1], the “Binding of serum SARS-yellow to linear peptides of protein X3 of SARS-CoV Urbani” value came to 0.5 and the “Binding of serum SARS-yellow to looped/cyclic peptides of protein X3 of SARS-CoV Urbani” value is on record as 0.7. Moreover, in assay [2], the “Binding of Control Serum Blood-Bank to Looped peptides of the protein X3 of SARS-CoV Urbani” value stood at 0.8, the “Binding of Control serum Blood-bank to linear peptides of the protein X3 of SARS-CoV Urbani” value stood at 0.8, the “Binding of Control serum LUMC to linear peptides of the protein X3 of SARS-CoV Urbani” value turned out to be 0.6 and the “Binding of Control serum LUMC to looped peptides of the protein X3 of SARS-CoV Urbani” value stood at 0.7. In addition, in assay [3], the “Rabbit serum linear peptides” value was 0.3 and the “Rabbit serum looped peptides” value was 0.3.
